According to article PMC10813298, “Evidence of Guanidines Potential against Leishmania (Viannia) braziliensis: Exploring In Vitro Effectiveness, Toxicities and of Innate Immunity Response Effects” (Biomolecules, 2023):
“Also recorded” adds a separate entry of the source. Read-outs that look alike come from different tables or passages of the source.

Assays:
[1] = Cytotoxicity against RAW 264.7 macrophages (MTT); format: cell-based, murine; details: mouse, RAW 264.7 macrophages, pH 7.2, RAW 264.7 cells
Experimental: (§1) Murine macrophage cell line RAW 264.7 was used in this study. The cells were cultured in 75 cm^2 cell culture flasks (Corning Glass Workers, New York, NY, USA) using DMEM medium with a pH of 7.2, supplemented with 10% FBS and 1% antibiotic solution (containing 100 U/mL penicillin and 100 μg/mL streptomycin). The cells were maintained in an incubator at a temperature of 37 °C with 5% CO2. The spikes were performed after the cells reached complete confluence, characterized by the formation of a monolayer of cells around 48 h to 72 h after packaging.
(§2) In this study, we utilized the RAW 264.7 macrophages line (obtained from ATCC: code TIB-71™),human embryonic kidney cell line HEK-293 (obtained from ATCC: code CRL-1573™)and two human cancer cell cultures: the colon carcinoma cell line CaCo-2 and the adenocarcinomic human alveolar basal epithelial cell A549 (also obtained from ATCC: codesHTB-37™ and CCL-185™).These cell lines were cultured in Dulbecco’s modified Eagle medium (DMEM) from Gibco by Life Technologies (LifeTech Austria, Vienna, Austria). The growth medium was supplemented with 5% fetal bovine serum (FBS) from Gibco by Life Technologies and 1% penicillin-streptomycin obtained from Sigma-Aldrich (Vienna, Austria). The cells were maintained at 37 °C with 5% CO2 in a humidified incubator, and regular checks for mycoplasma contamination were carried out.
(§3) For experimental purposes, the cells were seeded into 96-well plates at a density of 2 × 10^4 cells/mL, with each well containing 100 µL of the cell suspension. The cells were allowed to adhere for 24 h. Subsequently, they were exposed to 100 µL of the test compounds, which were diluted in DMEM, with concentrations ranging from 2 to 600 µmol/L. The stock solutions of these compounds were prepared in water with 10% (v/v) dimethyl sulfoxide (DMSO) and stored at 4 °C.
(§4) To assess cell viability after 72 h of exposure to the compounds, we employed a 3-(4,5-dimethylthiazol-2-yl)-2,5-diphenyltetrazolium bromide (MTT)-based vitality assay kit (EZ4U, Biomedica, Vienna, Austria). Briefly, we added 20 µL of the EZ4U assay solution to each well and incubated the plates in the dark for 2 h. Subsequently, we measured the absorbance using a microplate reader at 450 nm, with 620 nm as a reference to reduce unspecific background values. For reliability, all experiments were conducted three times with triplicate samples.
(§5) The different mean concentrations for promastigotes (IC50) and macrophages (CC50) were calculated using nonlinear regression. For comparisons between groups, ANOVA analysis of variance was performed followed by Tukey’s test in a statistical program, taking the p-value < 0.05 as the maximum level of statistical significance.

RAW 264.7 macrophages = experiment: Cytotoxicity against RAW 264.7 macrophages (MTT); format: cell-based, murine; details: RAW 264.7 cells, 72 h
Experimental: as §1, §2, §3, §4, §5

[2] = system: L. (V.) braziliensis promastigotes; experiment: Antileishmanial activity on promastigotes (MTT, 72 h); format: cell-based, Leishmania (Viannia) braziliensis
Experimental: Leishmania (Viannia) braziliensis (MHOM/BR/1975/M2903) was utilized in this study. The promastigote forms of these parasites were maintained in vitro in Schneider’s insect medium pH 7.2, supplemented with 20% fetal bovine serum (FBS) and 1% antibiotic solution (100 U/mL penicillin and 100 μg/mL streptomycin) at a temperature of 26 ± 1 °C in a Biochemical Oxygen Demand (BOD) incubator (Eletrolab EL202, São Paulo, Brazil), with regular aeration and weekly subculturing.
(§6) Assessment of antileishmanial activity against promastigote and amastigote axenic forms of parasites followed the method described by Rodrigues et al. and involved the following steps: L. (V.) braziliensis parasites were cultured in 96-well plates at a concentration of 1 × 10^6 parasites per well. Each well contained 100 μL of supplemented Schneider medium. Serial concentrations of the test substances, ranging from 50 to 1.56 μmol/L, were prepared. Reference drugs, meglumine antimoniate (20 to 40,000 μmol/L) and amphotericin B (0.031 to 2 μmol/L) were also prepared. These concentrations were used to assess the effects of the test substances in comparison to reference drugs. The plates were incubated in a BOD incubator at 26 °C for 72 h. After the 72 h incubation period, 10 μL of MTT (5 mg/mL) was added to each well. The plates were then incubated for an additional 4 h. At the end of the 4 h incubation, formazan crystals formed by the reduction of the MTT salt were solubilized by adding 50 μL of a 10% (w/v) sodium dodecyl sulfate (SDS) solution in distilled water. Absorbance was measured using a microplate reader at a wavelength of 540 nm (Biosystems ELx800 model, Curitiba, PR, Brazil). This measurement quantified the metabolic activity of the parasites, which is indicative of their viability and proliferation. Schneider medium containing 0.2% DMSO was used as a negative control in the tests.
as §5

[3] = system: L. (V.) braziliensis axenic amastigotes; experiment: Antileishmanial activity on axenic amastigotes (MTT, 72 h); format: cell-based, Leishmania (Viannia) braziliensis
Experimental: In vitro amastigogenesis was performed by transformation from promastigotes at the stationary phase of growth to obtention axenic amastigotes. This process involved altering the culture conditions to Schneider’s medium with a pH of 5.5, supplementing them with 5% FBS, and incubating them at a temperature of 32 °C [17].
as §6

[4] = system: L. (V.) braziliensis intramacrophage amastigotes; experiment: Treatment of RAW 264.7 macrophages infected with L. (V.) braziliensis (intramacrophage amastigotes); format: cell-based, Leishmania (Viannia) braziliensis; details: RAW 264.7 infected with L. (V.) braziliensis, 72 h of treatment
Experimental: RAW 264.7 macrophages (1 × 10^6 cells/mL) were seeded in 24-well plates containing sterile glass slides, and approximately 500 μL of supplemented DMEM medium was added. The plates were then incubated at 37 °C with 5% CO2 for 4 h to facilitate cell adhesion. Following the adhesion period, promastigotes (1 × 10^7) in the stationary growth phase were introduced into the wells for infection. The plates were then incubated for an additional 4 h to allow infection to take place. Afterward, the medium was carefully removed, and the wells were washed three times with PBS to eliminate any nonadherent cells. Fresh medium containing serial concentrations of the test substances, ranging from 0.78 to 25 μmol/L, was added to the wells. Additionally, a range of concentrations of glucantime (25 to 800 μmol/L) was included for comparison. The treatment was carried out for 72 h in an incubator at 37 °C with 5% CO2. At the end of the 72 h treatment period, the glass lamina was removed from each well and stained using rapid panoptic stain (Laborklin®, Curitiba, Paraná, Brazil). The stained samples were mounted on permanent slides using Entelan® (Sigma-Aldrich, St. Louis, MO, USA), and antileishmanial activity was assessed by measuring the infection rate and counting the number of amastigotes per macrophage. Quantification was performed using light microscopy at a magnification of 1000×, and a total of 300 macrophages per lamina were evaluated. As a negative control, half DMEM containing 0.2% DMSO was used.

right atrium = experiment: Chronotropic effect on isolated right atrium; parameters: species or system guinea pig; details: Cavia porcellus; isolated guinea pig right atrium, 3 to 100 µmol/L; read-out: EC50 reduction of heart rate activity
Experimental: (§7) Guinea pigs of either sex weighing between 250 or 380 g were utilized in this study. The animals were housed in a controlled environment in an air-conditioned room, maintaining a temperature of 22 to 24 °C and a relative humidity of 50% to 60%. A 12 h light–dark cycle was maintained.
(§8) On the day of the experiments, the animals were euthanized via cervical dislocation. The heart, aorta, pulmonary artery, and ileum were surgically removed and immersed in Krebs–Henseleit solution, with the following composition: NaCl 144.9 mM, KCl 4.73 mM, CaCl2 3.2 mM, MgSO4 1.18 mM, NaHCO3 24.9 mM, KH2PO4 1.18 mM, and glucose 10 mM, with the pH maintained at 7.2–7.4. This solution was continuously aerated with a mixture of 95% O2 and 5% CO2.
(§9) Papillary muscles were isolated from the right ventricle of the heart and meticulously cleared of Purkinje fibers to prevent spontaneous activity. To ensure adequate oxygen supply, only muscles with a diameter less than 0.87 mm were used. The right atrium was also dissected for assessment of chronotropic activity. Both the aorta and pulmonary artery were cleaned and cut into 5 mm rings, while the ileum was sectioned into pieces measuring 1 to 2 cm.
(§10) One end of the dissected tissues was securely tied with silver wire for attachment to a tissue holder, while the other end was connected to a force transducer (Transbridge™, 4-Channel Transducer Amplifier, World Precision Instruments, Sarasota, FL, USA). For contractile measurements, the terminal ileum was stimulated with 60 mM KCl, and the pulmonary artery and aorta rings were exposed to a 90 mM KCl solution. Papillary muscles were electrically stimulated using an Anapulse Stimulator Model 301-T and an Isolation Unit Model 305-1 (WPI, Hamden, CT, USA) with rectangular pulses of 3 ms duration at a frequency of 1 Hz. The amplitude of the stimulation pulse was maintained at 10% above the threshold level. To optimize contractility, a constant resting tension was applied throughout the experiment: 3.9 mN for papillary muscle, 4.9 mN for terminal ileum, 10.4 mN for the right atrium, and 19.6 mN for aorta and pulmonary artery rings.
(§11) Following a 30 min control period, different concentrations of test compounds were cumulatively added to the bath solution every 45 min until a stable effect was achieved. The responses were recorded using a chart recorder (BD 112 Dual Channel, Kipp &Zonen, PO Box 507, 2624 BC, Delft, Holland) for subsequent evaluation. Stock concentrations of the test compounds were prepared using DMSO. To account for any potential DMSO effect, control experiments were conducted with the solvent alone, and the observed effects were subtracted from the responses elicited by the test compounds.

aorta = experiment: Vasodilator effect on aortic rings (KCl contraction); details: Cavia porcellus; guinea pig aortic rings
Experimental: as §7, §8
as §9, with “Both the aorta and pulmonary artery were cleaned and cut into 5 mm rings, while the ileum was sectioned into pieces measuring 1 to 2 cm.” left out
(§12) Following a 30 min control period, different concentrations of test compounds were cumulatively added to the bath solution every 45 min until a stable effect was achieved. The responses were recorded using a chart recorder (BD 112 Dual Channel, Kipp &Zonen, PO Box 507, 2624 BC, Delft, Holland) for subsequent evaluation. […]

pulmonary artery = experiment: Vasodilator effect on pulmonary artery rings (KCl contraction); details: Cavia porcellus; guinea pig pulmonary artery rings
Experimental: as §7, §8, §9
One end of the dissected tissues was securely tied with silver wire for attachment to a tissue holder, while the other end was connected to a force transducer (Transbridge™, 4-Channel Transducer Amplifier, World Precision Instruments, Sarasota, FL, USA). For contractile measurements, the terminal ileum was stimulated with 60 mM KCl, and the pulmonary artery and aorta rings were exposed to a 90 mM KCl solution. […]
as §12

terminal ileum = experiment: Spasmolytic effect on terminal ileum (KCl contraction); details: guinea pig terminal ilea, KCl-induced contraction
Experimental: as §7, §8, §9, §10, §11

Row | Compound | CC50 at 72 h [1] | CC50 (RAW 264.7 macrophages) | IC50 ([2]; Leishmania braziliensis) | EC50 [4] | further results
1 | C[C@@H]1[C@H](O)[C@@H](C)/C=C/C=C/C=C/C=C/C=C/C=C/C=C/[C@H](O[C@@H]2O[C@H](C)[C@@H](O)[C@H](N)[C@@H]2O)C[C@@H]2O[C@](O)(C[C@@H](O)C[C@@H](O)[C@H](O)CC[C@@H](O)C[C@@H](O)CC(=O)O[C@H]1C)C[C@H](O)[C@H]2C(=O)O [Amphotericin B, reference compound] | 0.55 µM | 0.5 ± 0.1 µM | 0.3 ± 0.01 µM | 0.3 ± 0.02 µM | EC50 ([3]; Leishmania braziliensis): 0.4 µM; EC50 ([4]; Leishmania braziliensis, RAW264.7, 72 h): 0.35 µM
2 | O=C(/N=C(/NCc1ccccc1)Nc1ccccc1Br)c1ccccc1 [LQOF-G35] | 232 ± 3.5 µM | – | 25.9 ± 1.6 µM | – | –
3 | O=C(/N=C(/NCc1ccccc1)Nc1cccc(Br)c1)c1ccccc1 [LQOF-G36] | – | – | > 50 µM | – | EC50 (right atrium): 38 µM; EC50 (aorta): 29 µM; EC50 (pulmonary artery): 23.5 µM; spasmolytic effect / contraction force in the terminal ileum (terminal ileum): decrease in contraction force; also recorded: spasmolytic effect
4 | Meglumine antimoniate [Meglumine At, reference compound] | – | 846 ± 13 µM | – | 452 ± 14.3 µM | IC50 [2]: 19300 µM; EC50 [3]: 2170 µM; EC50 ([4]; listed as Meglumine antimoniate): 452 µM
